Measured values: patent publication US20180163250A1, “Screening Broths Comprising Esculatin Compounds for the Detection of Specific Microorganisms” (Neogen Corporation, priority 2016, published 2018)
Structures can show the parent of a compound that is named as a salt.

Columns and labels:
Format in all cases: cell-based
[1] = tested on: methicillin resistant staphylococcus aureus strains; assay: Growth and initial color change in MRSA screening broth (LAB588) containing the substrate; conditions: for Initial color change indicating the presence of MRSA: LAB588 broth with cefoxitin, 100-1000 cfu
Procedure: (§1) CHE-phosphate, and 3,4-cyclohexenoesculatin diphosphate were dissolved at 200 mg/ml in a 50:50 mixture of dimethylformamide and water. 5-bromo-4-chloroindoxyl phosphate was dissolved at 200 mg/ml in a 50:50 mixture of ethanol and water. The mixtures of compounds were added individually to a MRSA broth (LAB588; Lab M limited) pre-dispensed to 10 ml volumes, after supplementation with cefoxitin selective agent, as 25 μL additions from the prepared stock solutions.
(§2) A 0.5 Macfarlane standard suspension of methicillin resistant staphylococcus aureus strains were prepared from 18-24 h cultures grown in tryptic soy broth (LAB004; Lab M Limited) at 37° C. These were diluted and added to the MRSA broth samples in an amount sufficient to inoculate each sample with 100-1000 colony forming units (cfu). Target concentration was achieved by diluting a culture to a target level and inoculating sets of tubes at different inoculum dilutions so as to achieve the target range. The actual quantity inoculated was confirmed by plating 50 μl of the dilution onto Tryptone soy agar (LAB011) and incubating the plates for 18-24 h at 37° C. and counting the resulting colonies. This information was used to determine which tubes had been inoculated within the target dosing range.
(§3) The broth is designed to selectively indicate a positive presence of MRSA by a yellow color, or a presumptive positive presence of MRSA by an orange color (Table 1). To the CHE-phosphate and 3,4-cyclohexenoesculatin diphosphate was added 50 μL of a 250/mg/ml stock solution of Ferric ammonium citrate and samples were allowed to incubate at ambient temperature for 5 minutes.

[2] = tested on: phosphatase activity of methicillin resistant staphylococcus aureus; assay: Blackening after addition of ferric ammonium citrate (free CHE, phosphatase activity) in MRSA broth; conditions: for Color or masking reaction (blackening reaction, dark precipitate): MRSA broth, after ferric ammonium citrate; for blackening after the addition of ferric ammonium citrate indicating the presence of free 3,4-cyclohexenoesculatin: 5 minutes at ambient temperature after FAC
Procedure: as §1, §2, §3

[3] = tested on: Listeria monocytogenes, NCTC5348 and NCTC10527; assay: Pre- and post-incubation detection of enzymatic activity in Listeria express broth (LAB589)
Procedure: 3,4-cyclohexenoesculatin glucoside, was dissolved at 200 mg/ml in 50:50 mixture of dimethylformamide and water. The mixture was then added to pre-dispensed 10 ml volume samples of Listeria express broth (LAB589 from Lab M limited) as 25 μL additions from the prepared stock solutions. Additional broth samples without added chromogen were prepared and inoculated at the same time as the chromogen containing samples. The stock solution was then stored at −20° C. for 24 hours. A 0.5 Macfarlane standard suspension of Listeria monocytogenes, NCTC5348 and NCTC10527, was prepared from 18-24 hour cultures grown in tryptic soy broth (LAB004 from Lab M Limited) at 37° C. These were diluted so as to inoculate each sample with 100-1000 or 10,000-100,000 cfu. Samples were then incubated at 37° C. for 24 hours. The samples were then observed, and bacterial growth confirmed. 50 μL of a 250/mg/ml stock solution of ferric ammonium citrate was then added to each sample. Samples without 3,4-cyclohexenoesculatin glucoside chromogen were then supplemented with 25 μL additions from the stored 3,4-cyclohexenoesculatin glucoside stock solution and observed at ambient temperature for 30 minutes.

[4] = tested on: Listeria monocytogenes NCTC 10257; assay: Masking of fluorogenic reaction by CHE glucoside and ferric ammonium citrate in broth; conditions: uv light
Procedure: 4-methylumbelliferyl-β-D glucopyranoside (MC633 from Sigma Aldrich) was dissolved in water at 100 mg/ml and 25 μL of this stock solution added to pre-dispensed 10 mL volumes of Lab589 (Lab M Limited) and Lab049 (Brain heart infusion broth Lab M limited). Listeria monocytogenes NCTC 10257 were prepared from 18-24 hour cultures grown in tryptic soy broth (LAB004 from Lab M Limited) at 37° C. These were diluted so as to inoculate each sample with 100-1000 cfu. Samples were then incubated at 37° C. for 24 hours. Samples were then observed and confirmed for bacterial growth, and further observed under an ultra violet light for fluorescence. The samples were then supplemented with 3,4-cyclohexenoesculatin glucoside (Biosynth C9218), from a 200 mg/ml in 50:50 mixture of dimethylformamide and water. 50 μL of a 250/mg/ml stock solution of ferric ammonium citrate was added to each sample, observing visually for blackening and under ultra violet light for fluorescence masking after 15 minutes incubation at ambient. Table 5 provides that 3,4-cyclohexenoesculatin glucoside can be used as an additional masking reagent to confirm fluorogenic based broth systems.

[5] = L. monocytogenes NCTC 5348 100 cfu, glucoside added post incubation
[6] = L. monocytogenes NCTC 5348 100 cfu, glucoside added pre incubation
[7] = L. monocytogenes NCTC 5348 10000 cfu, glucoside added post incubation
[8] = L. monocytogenes NCTC 5348 10000 cfu, glucoside added pre incubation
[9] = L. monocytogenes NCTC 10527 100 cfu, glucoside added post incubation
[10] = L. monocytogenes NCTC 10527 100 cfu, glucoside added pre incubation
[11] = L. monocytogenes NCTC 10527 10000 cfu, glucoside added post incubation
[12] = L. monocytogenes NCTC 10527 10000 cfu, glucoside added pre incubation

O=P(O)(O)Oc1c[nH]c2ccc(Br)c(Cl)c12 [Indoxyl phosphate, 5-bromo-4-chloroindoxyl phosphate, reference compound]
Initial color change indicating the presence of MRSA ([1]; MRSA 3): Growth (orange) | Initial color change indicating the presence of MRSA ([1]; MRSA 15): Growth (orange) | Initial color change indicating the presence of MRSA ([1]; MRSA 15A (clinical isolate)): Growth (orange) | Initial color change indicating the presence of MRSA ([1]; MRSA 15B (clinical isolate)): Growth (orange) | Initial color change indicating the presence of MRSA ([1]; MRSA 15C (clinical isolate)): Growth (orange) | Initial color change indicating the presence of MRSA ([1]; MRSA 16A (clinical isolate)): Growth (orange) | Initial color change indicating the presence of MRSA ([1]; MRSA 16B (clinical isolate)): Growth (orange) | Initial color change indicating the presence of MRSA ([1]; MRSA 16C (clinical isolate)): Growth (orange) | Initial color change indicating the presence of MRSA ([1]; S. aureus NCTC 12493): Growth (orange) | Color or masking reaction (blackening reaction, dark precipitate) [2]: no detectable color or masking reaction

O=c1oc2cc(O)c(O[C@@H]3O[C@H](CO)[C@@H](O)[C@H](O)[C@H]3O)cc2c2c1CCCC2 [3,4-cyclohexenoesculatin glucoside]
Color t = 0 minutes post iron addition [3, 5]: yellow | Color t = 15 minutes post iron addition [3, 5]: Black | Color t = 0 minutes post iron addition [3, 6]: Black | Color t = 15 minutes post iron addition [3, 6]: Black | Color t = 0 minutes post iron addition [3, 7]: yellow | Color t = 15 minutes post iron addition [3, 7]: Black | Color t = 0 minutes post iron addition [3, 8]: Black | Color t = 15 minutes post iron addition [3, 8]: Black | Color t = 0 minutes post iron addition [3, 9]: yellow | Color t = 15 minutes post iron addition [3, 9]: Black | Color t = 0 minutes post iron addition [3, 10]: Black | Color t = 15 minutes post iron addition [3, 10]: Black | Color t = 0 minutes post iron addition [3, 11]: yellow | Color t = 15 minutes post iron addition [3, 11]: Black | Color t = 0 minutes post iron addition [3, 12]: Black | Color t = 15 minutes post iron addition [3, 12]: Black | Time to strong black reaction ([3]; glucoside added post incubation): about 15 minutes | Time to strong black reaction on the addition of ferric ammonium citrate ([3]; samples incubated with the glucoside): instantly

O=c1oc2cc(OP(=O)(O)O)c(OP(=O)(O)O)cc2c2c1CCCC2 [Diphosphate, 3,4-cyclohexenoesculatin diphosphate tetra-potassium salt]
Initial color change indicating the presence of MRSA ([1]; MRSA 3): Growth (yellow) | Initial color change indicating the presence of MRSA ([1]; MRSA 15): Growth (yellow) | Initial color change indicating the presence of MRSA ([1]; MRSA 15A (clinical isolate)): Growth (yellow) | Initial color change indicating the presence of MRSA ([1]; MRSA 15B (clinical isolate)): Growth (yellow) | Initial color change indicating the presence of MRSA ([1]; MRSA 15C (clinical isolate)): Growth (yellow) | Initial color change indicating the presence of MRSA ([1]; MRSA 16A (clinical isolate)): Growth (yellow) | Initial color change indicating the presence of MRSA ([1]; MRSA 16B (clinical isolate)): Growth (yellow) | Initial color change indicating the presence of MRSA ([1]; MRSA 16C (clinical isolate)): Growth (yellow) | Inhibition of the growth of MRSA ([1]; MRSA broth LAB588, summary of Table 1): not inhibitory | Initial color change indicating the presence of MRSA ([1]; S. aureus NCTC 12493): Growth (yellow) | blackening after the addition of ferric ammonium citrate indicating the presence of free 3,4-cyclohexenoesculatin ([2]; MRSA 3): No change | blackening after the addition of ferric ammonium citrate indicating the presence of free 3,4-cyclohexenoesculatin ([2]; MRSA 15): No change | blackening after the addition of ferric ammonium citrate indicating the presence of free 3,4-cyclohexenoesculatin ([2]; MRSA 15A (clinical isolate)): No change | blackening after the addition of ferric ammonium citrate indicating the presence of free 3,4-cyclohexenoesculatin ([2]; MRSA 15B (clinical isolate)): No change | blackening after the addition of ferric ammonium citrate indicating the presence of free 3,4-cyclohexenoesculatin ([2]; MRSA 15 C (clinical isolate)): No change | blackening after the addition of ferric ammonium citrate indicating the presence of free 3,4-cyclohexenoesculatin ([2]; MRSA 16A (clinical isolate)): No change | blackening after the addition of ferric ammonium citrate indicating the presence of free 3,4-cyclohexenoesculatin ([2]; MRSA 16B (clinical isolate)): No change | blackening after the addition of ferric ammonium citrate indicating the presence of free 3,4-cyclohexenoesculatin ([2]; MRSA 16 C (clinical isolate)): No change | Color or masking reaction (blackening reaction, dark precipitate) [2]: does not produce the same dark precipitate | blackening after the addition of ferric ammonium citrate indicating the presence of free 3,4-cyclohexenoesculatin ([2]; S. aureus NCTC 12493): No change

Cc1cc(=O)oc2cc(O[C@@H]3O[C@H](CO)[C@@H](O)[C@H](O)[C@H]3O)ccc12 [4-methylumbelliferyl-β-D glucopyranoside]
Appearance T = 15 minutes post iron addition ([4]; LAB049 broth): fluorescent under uv light | Appearance t = 0 minutes post iron addition ([4]; LAB049 broth): fluorescent under uv light | Appearance T = 15 minutes post iron addition ([4]; LAb589 broth): fluorescent under uv light | Appearance t = 0 minutes post iron addition ([4]; LAb589 broth): fluorescent under uv light
